In patent US8058233B2, “Modification of feeding behavior using PYY and GLP-1” (Oregon Health and Science University, priority 2002, dated 2011):
No end group written: not given here.

How the values were obtained:
POMC neurons = assay: Whole cell recordings from fluorescent POMC-EGFP neurons in ARC slices (Example 2); assay type: cell-based, mouse
[1] = Intracerebroventricular GLP-1 in rats; assay type: in vivo, rat
Text: This effect is blocked by the specific GLP-1 receptor antagonist, exendin 9-39. GLP-1 receptors are found in the brainstem, arcuate nucleus and PVN. Following ICV GLP-1 administration, c-fos is expressed in the arcuate nucleus and PVN.

[2] = 1-hour food intake after IP GLP-1 with intra-arcuate exendin 9-39 in non-fasted rats; assay type: in vivo, rat; conditions: GLP-1 25 nmol/kg, exendin 9-39 20 nmoles/kg, FIG. 11
Method: GLP-1 i.e. GLP-1 (7-36) amide (25 nmol/kg) or saline (control) was administered parenterally to non-fasted rats prior to the onset of the dark phase. Exendin 9-39 (20 nmoles/kg) or saline (control) injected into the arcuate nucleus of non-fasted rats. Food intake one hour later was measured.

[3] = Co-administration of PYY3-36 and GLP-1 by intravenous infusion in humans, free buffet meal; assay type: in vivo, human
Text: 10 healthy volunteers (4 men and 6 women) having a mean age of 24.7 (±0.8) years and a mean BMI of 22.7 (±0.6) kg/m^2 were recruited. The volunteers were asked to fast and to drink only water from 9 pm on the night preceding all study days. Each volunteer attended for four study days. The volunteers arrived at 9.30 am and the venflons were inserted.
The study was double blinded. GLP-1 is i.e. GLP-1 (7-36) amide

[4] = test system: non-fluorescent ARC neurons; assay: Recordings from adjacent non-fluorescent ARC neurons; assay type: cell-based, mouse; conditions: 13 cells tested

CTAP
effect on the current induced by Met-Enk in POMC cells (POMC neurons; CTAP 1 μM, Met-Enk 30 μM, n=3): completely prevented

D-Trp^8-γMSH
increase in frequency of GABAergic IPSCs in POMC neurons (POMC neurons; 7 nM, 3 of 4 POMC neurons): 280±90%
hyperpolarization of POMC neurons (POMC neurons; 7 nM, 9 of 15 POMC neurons): −5.5±2.4 mV

GLP-1 (7-36) amide (HAEGTFTSDVSSYLEGGAAKEFIAWLVKGR-NH2)
food intake after ICV administration [1]: potently inhibits food intake
effect of IP GLP-1 on 1-hour food intake with exendin 9-39 in the arcuate nucleus [2]: not influenced by the presence of concomitant exendin 9-39
Food intake from free buffet meal, mean ([3]; IV infusion 0.4 pmol/kg/min for 120 minutes (90 minutes pre-meal), 10 volunteers, saline 997): 950 kcal
% reduction from saline ([3]; IV infusion 0.4 pmol/kg/min for 120 minutes, free buffet meal): 5%

exendin 9-39
effect on inhibition of food intake by ICV GLP-1 [1]: blocked

leptin: leptin, hormone applied to POMC cells in slice preparations
effect on membrane potential of non-fluorescent ARC cells [4]: had no effect on 5 of 13 adjacent non-fluorescent cells tested (FIG. 3e), while it hyperpolarized 5 (FIG. 3f) and depolarized 3 other non-POMC neurons
decrease in frequency of GABAergic IPSCs in POMC cells (POMC neurons; 100 nM, in 5 out of 15 cells): 25%
depolarization of POMC cells, mean±SEM (POMC neurons; 100 nM, n=45): 9.7±1.2 mV
time to depolarization of POMC cells (POMC neurons; 0.1-100 nM): 2 to 10 min
depolarization of POMC cells (POMC neurons; 0.1-100 nM, 72 of 77 POMC cells): 3-30 mV

met-enkephalin
time to hyperpolarization of POMC cells (POMC neurons; 30 μM): 35 to 40 s
hyperpolarization of the membrane potential of POMC cells (POMC neurons; 30 μM, n=10, reversible): 10-20 mV

neuropeptide Y [NPY]
hyperpolarization of POMC neurons, average (POMC neurons; n=3): 9±6 mV
